Where two headings read alike, the source gives them in different places.
Biological target: T1, RORgT (Homo sapiens, UniProt P51449)
T1 construct: Gal4 (fusion partner); expressed in transfected cells; host or cells: engineered Jurkat cells (Jurkat pEx/Gal/hRORγ CLBD/HYG pG5luc/blast)
T1 sequence (P51449 267-516): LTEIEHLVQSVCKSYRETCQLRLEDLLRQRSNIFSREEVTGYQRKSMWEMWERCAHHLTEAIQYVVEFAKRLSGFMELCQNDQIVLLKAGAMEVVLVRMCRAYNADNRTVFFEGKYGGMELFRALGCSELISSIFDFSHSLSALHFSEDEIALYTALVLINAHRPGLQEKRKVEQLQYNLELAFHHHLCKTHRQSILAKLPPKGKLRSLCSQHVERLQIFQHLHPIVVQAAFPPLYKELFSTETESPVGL
Test: RORgT Gal4 Luciferase Reporter Gene Assay
Format: cell-based
Conditions: engineered Jurkat cells overexpressing RORgT (LBD or full length) with Gal4 Luc reporter, 18 hours at 37° C., 40 μM to 0.67 nM
Summary of the method: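 Cells exposed to compound 18 hours at 37° C, then lysed for luciferase luminescence. Inhibition of constitutive activity expressed as percent reduction of signal window relative to a control compound.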

Compound	EC50 (read-out: RORg_GAL4 EC50)	EC50 (RORg_GAL4 EC50 (nM))
CCS(=O)(=O)N1CCC(C(=O)NCc2ccc(Cl)c(Oc3ccc(OC)c(C(C)C)c3)c2Cl)CC1 [Example 212]	11 nM	–
COc1ccc(Oc2c(Cl)ccc(CNC(=O)C3CCN(S(C)(=O)=O)CC3)c2Cl)cc1C(C)C [Example 213]	19 nM	–
COc1ccc(Oc2c(Cl)ccc(C(=O)N3CCN(c4ccccc4)CC3)c2Cl)cc1C(C)C [Example 214]	434 nM	–
COc1ccc(Oc2c(Cl)ccc(C(=O)Nc3ccccc3CC#N)c2Cl)cc1C(C)C [Example 215]	37 nM	–
COc1ccc(Oc2c(Cl)ccc(C(=O)NCC3CCOCC3)c2Cl)cc1C(C)C [Example 216]	813 nM	–
COc1ccc(Oc2c(Cl)ccc(C(=O)NC(C)c3ccnn3C)c2Cl)cc1C(C)C (stereo not drawn) [Example 217]	45 nM	–
COc1ccc(Oc2c(Cl)ccc(C(=O)NCCc3ncn[nH]3)c2Cl)cc1C(C)C [Example 218]	328 nM	–
COc1ccc(Oc2c(Cl)ccc(C(=O)NCCc3ccc(S(N)(=O)=O)cc3)c2Cl)cc1C(C)C [Example 219]	1500 nM	–
COc1ccc(Oc2c(Cl)ccc(C(=O)NCCNC(C)=O)c2Cl)cc1C(C)C [Example 221]	560 nM	–
COc1ccc(Oc2c(Cl)ccc(CNC(=O)CC3CCN(S(C)(=O)=O)CC3)c2Cl)cc1C(C)C [Example 222]	225 nM	–
CCS(=O)(=O)N1CCC(OCC(=O)NCc2ccc(Cl)c(Oc3ccc(OC)c(C(C)C)c3)c2Cl)CC1 [Example 223]	1110 nM	–
COc1ccc(Oc2c(Cl)ccc(CNC(=O)CCC3CCN(S(C)(=O)=O)CC3)c2Cl)cc1C(C)C [Example 224]	732 nM	–
COc1ccc(Oc2c(Cl)ccc(C(=O)NCC3CCCC(O)C3)c2Cl)cc1C(C)C (stereo not drawn) [Example 225]	920 nM	–
COc1ccc(Oc2c(Cl)ccc(C(=O)NCC3CCCC(O)C3)c2Cl)cc1C(C)C (stereo not drawn) [Example 226]	286 nM	–
COc1ccc(Oc2c(Cl)ccc(C(=O)NCc3ccc(=O)[nH]c3)c2Cl)cc1C(C)C [Example 227, 2,4-dichloro-3-[4-methoxy-3-(propan-2-yl)phenoxy]-N-[(6-oxo-1,6-dihydropyridin-3-yl)methyl]benzamide]	109 nM	–
COc1ccc(Oc2c(Cl)ccc(C(=O)NCc3ccc(C#N)cc3)c2Cl)cc1C(C)C [Example 228]	102 nM	–
COc1ccc(Oc2c(Cl)cc(NC(=O)CN3CC4(C3)CN(S(=O)(=O)C3CC3)C4)cc2Cl)cc1C(C)C [Example 229]	891 nM	–
COc1ccc(Oc2c(Cl)ccc(C(=O)N3CCN(c4ccc(Cl)cc4)CC3)c2Cl)cc1C(C)C [Example 230]	373 nM	–
COc1ccc(Oc2c(Cl)cc(NC(=O)Cc3cccc(S(C)(=O)=O)c3)cc2Cl)cc1C(C)C [Example 231]	26 nM	–
COc1ccc(Oc2c(Cl)cc(NC(=O)Nc3cccnc3)cc2Cl)cc1C(C)C [Example 232]	285 nM	–
COc1ccc(Oc2c(Cl)cc(NC(=O)OCC(C)(C)C#N)cc2Cl)cc1C(C)C [Example 233]	319 nM	–

Compound	EC50 (read-out: RORg_GAL4 EC50)	EC50 (RORg_GAL4 EC50 (nM))
COc1ccc(Oc2c(Cl)cc(NC(=O)NCCS(N)(=O)=O)cc2Cl)cc1C(C)C [Example 234]	635 nM	–
COc1ccc(Oc2c(Cl)cc(NC(=O)OCCn3ccnc3)cc2Cl)cc1C(C)C [Example 235]	1270 nM	–
COc1ccc(Oc2c(Cl)cc(NC(=O)N3CCOCC3)cc2Cl)cc1C(C)C [Example 236]	597 nM	–
COc1ccc(Oc2c(Cl)cc(NC(=O)Cc3ccc[n+]([O-])c3)cc2Cl)cc1C(C)C [Example 237]	235 nM	–
COc1ccc(Oc2c(Cl)cc(NC(=O)Cc3ccnc(N)c3)cc2Cl)cc1C(C)C [Example 238]	752 nM	–
COc1ccc(Oc2c(Cl)cc(NC(=O)Cc3cncc(Cl)n3)cc2Cl)cc1C(C)C [Example 239]	170 nM	–
COc1ccc(Oc2c(Cl)cc(NC(=O)Cc3cccnc3S(C)(=O)=O)cc2Cl)cc1C(C)C [Example 240]	99 nM	–
COc1ccc(Oc2c(Cl)cc(NC(=O)Cc3ccnc(S(C)(=O)=O)c3)cc2Cl)cc1C(C)C [Example 241]	64 nM	–
COc1ccc(Oc2c(Cl)cc(NC(=O)Cc3cncc(S(C)(=O)=O)c3)cc2Cl)cc1C(C)C [Example 242]	40 nM	–
COc1ccc(Oc2c(Cl)cc(NC(=O)Cc3cnc(S(C)(=O)=O)cn3)cc2Cl)cc1C(C)C [Example 243]	1280 nM	–
COc1ccc(Oc2c(Cl)cc(NC(=O)Cc3cccc(S(N)(=O)=O)c3)cc2Cl)cc1C(C)C [Example 244]	37 nM	–
COc1ccc(Oc2c(Cl)cc(NC(=O)CCn3cncn3)cc2Cl)cc1C(C)C [Example 245]	1560 nM	–
COc1ccc(Oc2c(Cl)cc(NC(=O)Cc3cnn(C)c3)cc2Cl)cc1C(C)C [Example 246]	123 nM	–
COc1ccc(Oc2c(Cl)cc(NC(=O)C(O)c3cccnc3)cc2Cl)cc1C(C)C (stereo not drawn) [Example 247]	114 nM	–
COc1ccc(Oc2c(Cl)cc(NC(=O)Cc3cncn3C)cc2Cl)cc1C(C)C [Example 248]	2250 nM	–
COc1ccc(Oc2c(Cl)cc(NC(=O)CCc3c(C)n[nH]c3C)cc2Cl)cc1C(C)C [Example 249]	1640 nM	–
COc1ccc(Oc2c(Cl)cc(NC(=O)Cc3cnc[nH]3)cc2Cl)cc1C(C)C [Example 250]	500 nM	–
COC(=O)NCC1CN(c2cc(Cl)c(Oc3ccc(OC)c(C(C)C)c3)c(Cl)c2)C(=O)O1 (stereo not drawn) [Example 251]	433 nM	–
COc1ccc(Oc2c(Cl)cc(NC(=O)CCn3ccc(S(C)(=O)=O)n3)cc2Cl)cc1C(C)C [Example 252]	264 nM	–
COc1ccc(Oc2c(Cl)cc(N3CC(CNC(=O)CS(C)(=O)=O)OC3=O)cc2Cl)cc1C(C)C (stereo not drawn) [Example 253]	477 nM	–
COc1ccc(Oc2c(Cl)cc(N3CC(CNS(C)(=O)=O)OC3=O)cc2Cl)cc1C(C)C (stereo not drawn) [Example 254]	655 nM	–

Compound	EC50 (read-out: RORg_GAL4 EC50)	EC50 (RORg_GAL4 EC50 (nM))
COc1ccc(Oc2c(Cl)cc(NC(=O)CC3CCN(S(C)(=O)=O)CC3)cc2Cl)cc1C(C)(C)C [Example 255]	19 nM	–
COc1ccc(Oc2c(Cl)cc(NC(=O)Cc3cnn(S(C)(=O)=O)c3)cc2Cl)cc1C(C)(C)C [Example 256]	153 nM	–
CC(C)c1cc(F)cc(Oc2c(Cl)cc(NC(=O)CC3CCN(S(C)(=O)=O)CC3)cc2Cl)c1 [Example 258]	19 nM	–
CC(C)c1cc(Oc2c(Cl)cc(NC(=O)Cc3cccnc3)cc2Cl)ccc1OC(F)(F)F [Example 259]	356 nM	–
CC(C)c1cc(Oc2c(Cl)cc(NC(=O)CC3CCN(S(C)(=O)=O)CC3)cc2Cl)ccc1OC(F)(F)F [Example 260]	102 nM	–
CC(C)c1cc(F)cc(Oc2c(Cl)ccc(C(=O)NCC3CCN(S(C)(=O)=O)CC3)c2Cl)c1 [Example 261]	14 nM	–
CC(C)c1cc(F)cc(Oc2c(Cl)ccc(C(=O)N3CCN(S(C)(=O)=O)CC3)c2Cl)c1 [Example 263]	–	105 nM
CC(C)c1cc(F)cc(Oc2c(Cl)ccc(C(=O)N3CCC(S(C)(=O)=O)CC3)c2Cl)c1 [Example 264]	39 nM	–
CC(C)c1cc(Oc2c(Cl)cc(NC(=O)Cc3cccnc3)cc2Cl)ccc1Cl [Example 265]	204 nM	–
CC(C)c1cc(Oc2c(Cl)cc(NC(=O)CC3CCN(S(C)(=O)=O)CC3)cc2Cl)ccc1F [Example 266]	11 nM	–
COc1ncc(Oc2c(Cl)cc(NC(=O)CN3CC(NS(C)(=O)=O)C3)cc2Cl)cc1C(C)C [Example 267]	373 nM	–
COc1ncc(Oc2c(Cl)cc(NC(=O)CN3CCC(S(C)(=O)=O)CC3)cc2Cl)cc1C(C)C [Example 268]	40 nM	–
C=C(C)c1cc(Oc2c(Cl)cc(NC(=O)CC3CCN(S(C)(=O)=O)CC3)cc2Cl)ccc1Cl [Example 269]	185 nM	–
CC(C)c1cc(F)cc(Oc2c(Cl)cc(NC(=O)CC3CCN(S(N)(=O)=O)CC3)cc2Cl)c1 [Example 270]	22 nM	–
CS(=O)(=O)N1CCN(CC(=O)Nc2cc(Cl)c(Oc3ccc(F)c(C4CC4)c3)c(Cl)c2)CC1 [Example 271]	78 nM	–
CC(=O)NC[C@H]1CN(c2cc(Cl)c(Oc3cc(F)cc(C(C)C)c3)c(Cl)c2)C(=O)O1 [Example 272]	260 nM	–
CC1(c2cc(F)cc(Oc3c(Cl)cc(NC(=O)Cc4cccc(S(C)(=O)=O)c4)cc3Cl)c2)CC1 [Example 273]	1.1 nM	–
CC1(c2cc(F)cc(Oc3c(Cl)cc(NC(=O)Cc4ccc(S(C)(=O)=O)cc4)cc3Cl)c2)CC1 [Example 274]	3.9 nM	–
CC1(c2cc(F)cc(Oc3c(Cl)cc(NC(=O)CC4CCN(C(=O)C(F)(F)F)CC4)cc3Cl)c2)CC1 [Example 275]	12 nM	–
CC1(c2cc(F)cc(Oc3c(Cl)ccc(C(=O)NCc4ccc(S(C)(=O)=O)cc4)c3Cl)c2)CC1 [Example 276]	5.1 nM	–
CC1(c2cc(F)cc(Oc3c(Cl)ccc(C(=O)N4CCC5(CC4)CN(S(C)(=O)=O)C5)c3Cl)c2)CC1 [Example 277]	5.6 nM	–
